System: peripheral blood mononuclear cell (PBMC)
Assay: Inhibition of PMA/ionomycin-stimulated peripheral blood mononuclear cell proliferation
Format: cell-based
Settings: human PBMC from a single donor, PMA 0.5 ng/ml and ionomycin 500 ng/ml, 72 hours, 3H-Thymidine incorporation; read-out: IA50 (the source's name)
Experimental: The ability of compounds which can inhibit PMA/ionomycin-stimulated peripheral blood mononuclear cell proliferation can be assessed, for example using the procedure set out below:
Inhibition of PMA/Ionomycin-Stimulated Peripheral Blood Mononuclear Cell Proliferation
The assay for Phorbol 12-myristate 13-Acetate (PMA)/ionomycin-stimulated peripheral blood mononuclear cell (PBMC) proliferation was performed in 96-well flat bottomed microtitre plates. Compounds were prepared as 10 mM stock solutions in dimethyl sulfoxide. A 50-fold dilution of this was prepared in RPMI culture medium and serial diutions were prepared from this solution. 10 μl of the 50-fold diluted stock, or dilutions of it, were added to the well to give concentrations in the assay starting at […] and going down. Into each well was placed 1×10^5 PBMC, prepared from human peripheral blood from a single donor, in RPMI1640 medium supplemented with 10% human serum, 2 mM glutamine and penicillin/streptomycin. PMA (0.5 ng/ml final concentration) and ionomycin (500 ng/ml final concentration) were added to these cells in supplemented RPMI1640 medium (as above) so that the final volume of the assay was 0.2 ml. […] The level of radioactivity incorporated by the cells was then determined and this is a measure of proliferation.

| Structure (SMILES) | IC50 |
| --- | --- |
| CON(C)C(=O)c1c(Cc2ccnc3ccccc23)sc2c1c(=O)n(C)c(=O)n2CC(C)C [Example 2, 1,2,3,4-Tetrahydro-N-methoxy-N,3-dimethyl-1-(2-methylpropyl)-2,4-dioxo-6-(4-quinolinylmethyl)thieno[2,3-d]pyrimidine-5-carboxamide] | 5.88 nM |
| CCCn1c(=O)n(C)c(=O)c2c(C(=O)N(C)OC)c(Cn3c(C)nc(Cl)c3Cl)sc21 [Example 7, 6-[4,5-Dichloro-2-methyl-1H-imidazol-1-ylmethyl]-1,2,3,4-tetrahydro-N-methoxy-N,3-dimethyl-2,4-dioxo-1-propyl-thieno[2,3-d]pyrimidine-5-carboxamide] | 34.6 nM |
